Data: patent publication US20160257988A1, “Indicator Molecules For Use In Detecting Enzyme Cleavage Activity” (Mologic Limited, priority 2013, published 2016)

Target: T1, Matrix-Metalloproteinase 9 (MMP9) (Homo sapiens, UniProt P14780)
T1 construct: 5 μl sample (active MMP9 at 2 μg/ml)
Assay: Fluorogenic peptide cleavage assay with active MMP9 (kinetic fluorescence scan)
Type: biochemical
Conditions: active MMP9 at 2 μg/ml, 5 μl of 0.2 mM peptide per well; excitation 328 nm, emission 400 nm; kinetic scan 30 min; FIG. 3
Procedure: 2 flurogenic peptides with 1 (PCL0174 A4) or 2 (PCL0174 B1) cleavable sequences respectively were investigated with sensitivity towards Matrix-Metalloproteinase 9 (MMP9).
96-well assay plate, black polystyrene, Costar®, Corning Inc. (Cat. #3925, lot #25011023)
MMP buffer, Aq. Solution of 50 mM Tris, 100 mM sodium chloride, 10 mM Calcium Chloride, 50 μM […] zinc chloride, 0.025% Brij 35, 0.05% sodium azide at pH 8.0.
Peptides PCL0174 A4 and PCL0174 B1 at a molar concentration of 8 mM
Testing Method • Peptides at a stock of 8 mM were diluted to 0.2 mM in MMP buffer • 2 μl+78 μl MMP buffer • 5 μl sample (active MMP9 at 2 μg/ml)+190 μl MMP buffer added to well • 5 μl of 0.2 mM peptide added per well • Read on a Fluorometer using the following settings: • Excitation wavelength: 328 nm, bandwidth 5 nm • Emission wavelength: 400 nm, bandwidth 5 nm • Kinetic scan: 30 min, interval 1 min

T1 sequence (P14780 107-707 limits assumed, species assumed): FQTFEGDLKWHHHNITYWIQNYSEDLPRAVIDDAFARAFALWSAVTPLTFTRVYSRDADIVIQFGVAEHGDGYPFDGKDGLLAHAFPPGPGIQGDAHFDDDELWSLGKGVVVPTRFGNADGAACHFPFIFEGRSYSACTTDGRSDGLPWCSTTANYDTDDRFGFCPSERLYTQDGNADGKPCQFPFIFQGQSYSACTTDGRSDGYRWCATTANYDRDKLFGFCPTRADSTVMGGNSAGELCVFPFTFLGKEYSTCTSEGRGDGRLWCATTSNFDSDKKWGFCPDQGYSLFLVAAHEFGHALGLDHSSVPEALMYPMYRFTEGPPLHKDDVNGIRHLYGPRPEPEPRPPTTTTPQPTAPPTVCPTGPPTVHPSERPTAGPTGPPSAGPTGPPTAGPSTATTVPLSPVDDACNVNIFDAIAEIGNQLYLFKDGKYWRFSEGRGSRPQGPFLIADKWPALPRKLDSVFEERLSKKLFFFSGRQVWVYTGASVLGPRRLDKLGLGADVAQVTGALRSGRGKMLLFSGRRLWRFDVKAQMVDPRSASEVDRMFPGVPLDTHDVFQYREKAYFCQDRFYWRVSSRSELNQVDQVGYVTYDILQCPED

running time at which the same result (signal) is achieved [min]	Substance
8	Lys(Mc Coumarin)-[GPQGIFGQ])-[GPQGIFGQ]-Lys(Dnp)G [2 CS]
30	Lys(Mc Coumarin)-[GPQGIFGQ]-Lys(Dnp)G [1 CS]
